Test results reported in US8618080B2, “Immunomodulatory compounds and treatment of diseases related to an overproduction of inflammatory cytokines” (OM Pharma, priority 2006, dated 2013).

Tests used:
[1] = Pyrogenicity in the rabbit; format: in vivo, New Zealand white rabbits; conditions: i.v., temperature increase
Method: 3 New Zealand white rabbits/group were injected i.v. with either OM-197-MP-AC or OM-294-DP at different doses (according to the European Pharmacopoeia 2001, Method 2.6.8).
Animals: Readout: temperature increase

human CD4+ T cells = experiment: Cytokine production and proliferation of naïve CD4+ T cells stimulated with anti-CD3 and anti-CD28; format: cell-based; conditions: 0.02-20 μg/ml
Method: A series of four compounds of the present invention (OM-197-MP-AC, OM-197-MC-HD, OM-294-BA-MP, OM-197-MP-HD) were tested directly as summarized below:
Naïve CD4^+ T cells were magnetically sorted from healthy blood donor (buffy coat). The cells were stimulated in the presence or not of graded doses of triacyl derivatives (0.02; 0.2; 2 and 20 μg/ml) using plate-bound anti-CD3 (5 μg/ml) and soluble anti-CD28 (1 μg/ml). After 6 days, cytokine levels (IFN-γ and IL-13) were tested in the culture supernatants using ELISA.
FIGS. 3A-3D: Effect of increasing doses of the four compounds tested (OM-197-MP-AC, n=5; OM-197-MC-HD, n=5; OM-294-BA-MP, n=7; OM-197-MP-HD, n=3) on IFN-γ and IL-13 production of human CD4^+ T cells following a polyclonal activation. Results are expressed as the median (±p25/p75) of n independent experiments and show the percentage (%) proliferation or cytokine production of treated cells versus untreated cells (considered as 100%, see dotted line). The statistical analysis was performed using a nonparametric unpaired Mann-Whitney t test (2-tailed).

[2] = system: LACK-sensitised and -challenged BALB/c ByJ mice; experiment: LACK-induced allergic asthma model, other routes of administration; format: in vivo
Method: 43 females BALB/c ByJ mice 6-week old were purchased from the Centre d'Elevage Janvier (CERJ, Le Genest-St-Isle, France). All the mice were sensitised by 2 i.p. injections of 10 μg LACK protein precipitated in 2 mg of Alum (PerBio Science France SAS, Brebières, France) at days 1 and 8 (Julia et al., 2002).
OM-197-MP-AC was given from day 0 to day 12 as described below. All the mice were challenged from day 16 to day 20 with either a solution of LACK (0.15%) or with PBS as indicated below.
Experimental groups were the following: • Group A: untreated, LACK-sensitised and PBS-challenged mice (3 mice) • Group B: untreated LACK-sensitised and -challenged mice (7 mice) • Group C: i.p. OM-197-MP-AC-treated, LACK-sensitised and -challenged mice (5 mice) • Group D: i.g. OM-197-MP-AC-treated, LACK-sensitised and -challenged mice (7 mice) • Group E: s.c. OM-197-MP-AC-treated, LACK-sensitised and -challenged mice (7 mice). • Group F: i.n. OM-197-MP-AC-treated, LACK-sensitised and -challenged mice (7 mice) • Group G: aerosols OM-197-MP-AC-treated, LACK-sensitised and -challenged mice (7 mice)
Mice of groups C, D, E, and G were treated on days: 0, 2, 3, 4, 7, 9, 10, 11, whereas mice of group F (intranasal route) were only treated on days 0, 4, 7, and 11.
Mice of groups C and E were treated i.p. and s.c. respectively with 1 mg/Kg (20 μg per mouse) of OM-197-MP-AC.
Mice of group D were treated intragastrically with 50 mg/Kg (1 mg per mouse) of OM-197-MP-AC.
Mice of group F were treated i.n. with 20[…]μg of OM-197-MP-AC in a volume of 20 μl (OM-197-MP-AC at 2 mg/ml, 10[…]μl/nostril.)
Mice of group G received aerosols of a solution of OM-197-MP-AC at 0.2% (2 mg/ml) for 10 minutes.
All the mice were bled by heart puncture 2 days after the last aerosol. Total IgE were quantified by ELISA using rat EM-95 anti-IgE mAbs as coating antibody and rat anti-IgE mAbs coupled to biotin as second antibody as described elsewhere (Julia et al., 2002).
Individual mice were bled and a canula was inserted into their trachea. Lungs were washed 3 times with 1 ml of warmed PBS. Cells were washed with PBS, resuspended in 300 μl, and counted using a Burker-Türk chamber. For differential BAL cell counts, cytospin preparations were made and stained with Wright/Giemsa.

**Q.** With `CCCCCCCCCCCC(=O)O[C@H](CCCCCCCCCCC)CC(=O)N[C@@H](CCOP(=O)(O)O)C(=O)NCCC[C@H](COC(=O)CCCCCN)NC(=O)C[C@H](O)CCCCCCCCCCC` [OM-197-MP-AC, (3S, 9R)-3-[(R)-3-dodecanoyloxytetradecanoylamino]-4-oxo-5-aza-9-[(R)-3-hydroxytetradecanoylamino]-decan-1, 10-diol 1-dihydrogenophosphate 10-(6-aminohexanoate)] as the compound, how does the Pyrogenic threshold [1] read?
**A.** > 0.9 mg/kg

**Q.** And the T cell proliferation (human CD4+ T cells)?
**A.** unaffected

**Q.** What about the “IFN-γ production by CD4+ T cells” value (human CD4+ T cells; 6 days, ELISA) of the same compound?
**A.** unaffected

**Q.** What about the “IL-13 production by CD4+ T cells” value (human CD4+ T cells; 6 days, ELISA) of the same compound?
**A.** reduced

**Q.** And the “Eosinophils in BAL” value ([2]; aerosols of 0.2% solution, 10 minutes)?
**A.** same tendency as i.n. treated animals

**Q.** And the “BAL cell contents versus untreated mice” value ([2]; i.g. 50 mg/Kg, unformulated)?
**A.** did not yield differences

**Q.** What about the “Eosinophil frequencies and numbers in BAL” value ([2]; i.n. 20 μg per mouse) of the same compound?
**A.** reduced by half

**Q.** What about the “Total serum IgE” value ([2]; i.n. 20 μg per mouse) of the same compound?
**A.** reduced titers

**Q.** And the “Eosinophils in BAL” value ([2]; i.p. 1 mg/Kg)?
**A.** both reduced percentage and reduced numbers

**Q.** And the “Total IgE” value ([2]; i.p. 1 mg/Kg)?
**A.** reduced amounts

**Q.** And the “BAL cell contents versus untreated mice” value ([2]; s.c. 1 mg/Kg)?
**A.** did not yield differences
